Data taken from ChEMBL document CHEMBL1130110 (J Med Chem, 1997).

What was measured:
Glucagon receptor [1] = target: T1, Glucagon receptor (Rattus norvegicus, UniProt P30082); experiment: pA2 value against Glucagon Receptor; settings: read-out: pA2 (converted)
Glucagon receptor [2] = target: T1, Glucagon receptor; experiment: Binding affinity towards Glucagon receptor in rat liver plasma membranes by displacement of 125 I-labelled glucagon; assay type: cell membranes
[3] = target: Glucagon receptor (Rattus norvegicus) (UniProt P30082); experiment: Percent stimulation of cAMP production over basal.; assay type: functional; parameters: concentration or dose not given beside the values
Chain of Glucagon receptor (Rattus norvegicus) (P30082 whole entry): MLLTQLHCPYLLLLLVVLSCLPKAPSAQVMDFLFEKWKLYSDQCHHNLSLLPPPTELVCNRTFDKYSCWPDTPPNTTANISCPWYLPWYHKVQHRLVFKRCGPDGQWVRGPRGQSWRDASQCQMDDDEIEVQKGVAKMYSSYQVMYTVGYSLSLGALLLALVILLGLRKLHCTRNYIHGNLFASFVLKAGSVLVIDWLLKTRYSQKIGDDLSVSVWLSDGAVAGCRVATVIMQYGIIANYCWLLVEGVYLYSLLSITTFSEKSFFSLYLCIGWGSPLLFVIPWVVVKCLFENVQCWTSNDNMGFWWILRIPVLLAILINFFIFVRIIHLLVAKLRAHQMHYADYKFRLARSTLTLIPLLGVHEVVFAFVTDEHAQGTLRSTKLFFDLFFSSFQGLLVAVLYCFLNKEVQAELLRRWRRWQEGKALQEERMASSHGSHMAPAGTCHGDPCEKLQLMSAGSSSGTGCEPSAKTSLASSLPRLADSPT

[4] = target: Glucagon receptor (Rattus norvegicus) (UniProt P30082); experiment: Relative binding potency expressed as receptor binding IC50 for glucagon by receptor binding IC50 for compound

T1 sequence (P30082 whole entry): as above

Row | Compound | Kb (Glucagon receptor [1]) | IC50 (Glucagon receptor [2]) | Activity [3] | Activity [4]
1 | CSCC[C@H](NC(=O)[C@H](CC(C)C)NC(=O)[C@H](Cc1c[nH]c2ccccc12)NC(=O)[C@H](CCC(N)=O)NC(=O)[C@@H](NC(=O)[C@H](Cc1ccccc1)NC(=O)[C@H](CC(=O)O)NC(=O)[C@H](CCC(N)=O)NC(=O)[C@H](C)NC(=O)[C@H](CCCNC(=N)N)NC(=O)[C@H](CCCNC(=N)N)NC(=O)[C@H](CO)NC(=O)[C@H](CC(=O)O)NC(=O)[C@H](CC(C)C)NC(=O)[C@H](Cc1ccc(O)cc1)NC(=O)[C@H](CCCCN)NC(=O)[C@H](CO)NC(=O)[C@H](Cc1ccc(O)cc1)NC(=O)[C@H](CCC(=O)O)NC(=O)[C@H](CO)NC(=O)[C@@H](NC(=O)[C@@H](NC(=O)CNC(=O)[C@H](CCC(N)=O)NC(=O)[C@@H](N)CO)[C@@H](C)O)[C@@H](C)O)C(C)C)C(=O)N[C@@H](CC(N)=O)C(=O)N[C@H](C(=O)O)[C@@H](C)O (stereo in doubt; 12) | 794 nM | 1000 nM |  | 
2 | CSCC[C@H](NC(=O)[C@H](CC(C)C)NC(=O)[C@H](Cc1c[nH]c2ccccc12)NC(=O)[C@H](CCC(N)=O)NC(=O)[C@@H](NC(=O)[C@H](Cc1ccccc1)NC(=O)[C@H](CC(=O)O)NC(=O)[C@H](CCC(N)=O)NC(=O)[C@H](C)NC(=O)[C@H](CCCN=C(N)N)NC(=O)[C@H](CCCN=C(N)N)NC(=O)[C@H](CO)NC(=O)[C@H](CC(=O)O)NC(=O)[C@H](CC(C)C)NC(=O)[C@H](Cc1ccc(O)cc1)NC(=O)[C@H](CCCCN)NC(=O)[C@H](CO)NC(=O)[C@H](Cc1ccc(O)cc1)NC(=O)[C@H](CCC(=O)O)NC(=O)[C@H](CO)NC(=O)[C@@H](NC(=O)[C@@H](Cc1ccccc1)NC(=O)[C@@H](NC(=O)CNC(=O)[C@H](CCC(N)=O)NC(=O)[C@@H](N)CO)[C@@H](C)O)[C@@H](C)O)C(C)C)C(=O)N[C@@H](CC(N)=O)C(=O)N[C@H](C(N)=O)[C@@H](C)O | 501 nM | 100 nM |  | 
3 | CCCC[C@H](NC(=O)[C@@H](NC(=O)CNC(=O)[C@H](CCC(N)=O)NC(=O)[C@@H](N)CO)[C@@H](C)O)C(=O)N[C@H](C(=O)N[C@@H](CO)C(=O)N[C@@H](CCC(=O)O)C(=O)N[C@@H](Cc1ccc(O)cc1)C(=O)N[C@@H](CO)C(=O)N[C@@H](CCCCN)C(=O)N[C@@H](Cc1ccc(O)cc1)C(=O)N[C@@H](CC(C)C)C(=O)N[C@@H](CC(=O)O)C(=O)N[C@@H](CO)C(=O)N[C@@H](CCCN=C(N)N)C(=O)N[C@@H](CCCN=C(N)N)C(=O)N[C@@H](C)C(=O)N[C@@H](CCC(N)=O)C(=O)N[C@@H](CC(=O)O)C(=O)N[C@@H](Cc1ccccc1)C(=O)N[C@H](C(=O)N[C@@H](CCC(N)=O)C(=O)N[C@@H](Cc1c[nH]c2ccccc12)C(=O)N[C@@H](CC(C)C)C(=O)N[C@@H](CCSC)C(=O)N[C@@H](CC(N)=O)C(=O)N[C@H](C(N)=O)[C@@H](C)O)C(C)C)[C@@H](C)O |  | 48 nM |  | 
4 | CSCC[C@H](NC(=O)[C@H](CC(C)C)NC(=O)[C@H](Cc1c[nH]c2ccccc12)NC(=O)[C@H](CCC(N)=O)NC(=O)[C@@H](NC(=O)[C@H](Cc1ccccc1)NC(=O)[C@H](CC(=O)O)NC(=O)[C@H](CCC(N)=O)NC(=O)[C@H](C)NC(=O)[C@H](CCCN=C(N)N)NC(=O)[C@H](CCCN=C(N)N)NC(=O)[C@H](CO)NC(=O)[C@H](CC(=O)O)NC(=O)[C@H](CC(C)C)NC(=O)[C@H](Cc1ccc(O)cc1)NC(=O)[C@H](CCCCN)NC(=O)[C@H](CO)NC(=O)[C@H](Cc1ccc(O)cc1)NC(=O)[C@H](CCC(=O)O)NC(=O)[C@H](CO)NC(=O)[C@@H](NC(=O)[C@H](Cc1ccccc1)NC(=O)[C@@H](NC(=O)[C@H](CCC(N)=O)NC(=O)[C@@H](N)CO)[C@@H](C)O)[C@@H](C)O)C(C)C)C(=O)N[C@@H](CC(N)=O)C(=O)N[C@H](C(N)=O)[C@@H](C)O | 891 nM | 52 nM |  | 
5 | CSCC[C@H](NC(=O)[C@H](CC(C)C)NC(=O)[C@H](Cc1c[nH]c2ccccc12)NC(=O)[C@H](CCC(N)=O)NC(=O)[C@@H](NC(=O)[C@H](Cc1ccccc1)NC(=O)[C@H](CC(=O)O)NC(=O)[C@H](CCC(N)=O)NC(=O)[C@H](C)NC(=O)[C@H](CCCNC(=N)N)NC(=O)[C@H](CCCNC(=N)N)NC(=O)[C@H](CO)NC(=O)[C@H](CC(=O)O)NC(=O)[C@H](CC(C)C)NC(=O)[C@H](Cc1ccc(O)cc1)NC(=O)[C@H](CCCCN)NC(=O)[C@H](CO)NC(=O)[C@H](Cc1ccc(O)cc1)NC(=O)[C@H](CC(=O)O)NC(=O)[C@H](CO)NC(=O)[C@@H](NC(=O)[C@@H](NC(=O)CNC(=O)[C@H](CCC(N)=O)NC(=O)[C@@H](N)CO)[C@@H](C)O)[C@@H](C)O)C(C)C)C(=O)N[C@@H](CC(N)=O)C(=O)N[C@H](C(=O)O)[C@@H](C)O | 708 nM | 200 nM |  | 
6 | CSCC[C@@H](NC(=O)[C@@H](CC(C)C)NC(=O)[C@@H](Cc1c[nH]c2ccccc12)NC(=O)[C@@H](CCC(N)=O)NC(=O)[C@H](NC(=O)[C@@H](Cc1ccccc1)NC(=O)[C@@H](CC(=O)O)NC(=O)[C@@H](CCC(N)=O)NC(=O)[C@@H](C)NC(=O)[C@@H](CCCN=C(N)N)NC(=O)[C@@H](CCCN=C(N)N)NC(=O)[C@@H](CO)NC(=O)[C@@H](CC(=O)O)NC(=O)[C@@H](CC(C)C)NC(=O)[C@@H](Cc1ccc(O)cc1)NC(=O)[C@@H](CCCCN)NC(=O)[C@@H](CO)NC(=O)[C@@H](Cc1ccc(O)cc1)NC(=O)[C@@H](CCC(=O)O)NC(=O)[C@@H](CO)NC(=O)[C@H](NC(=O)[C@H](NC(=O)CNC(=O)[C@@H](CCC(N)=O)NC(=O)[C@H](N)CO)[C@H](C)O)[C@H](C)O)C(C)C)C(=O)N[C@H](CC(N)=O)C(=O)N[C@@H](C(N)=O)[C@H](C)O |  |  | 0% | 3.1%
7 | CSCC[C@@H](NC(=O)[C@@H](CC(C)C)NC(=O)[C@@H](Cc1c[nH]c2ccccc12)NC(=O)[C@@H](CCC(N)=O)NC(=O)[C@H](NC(=O)[C@@H](Cc1ccccc1)NC(=O)[C@@H](CC(=O)O)NC(=O)[C@@H](CCC(N)=O)NC(=O)[C@@H](C)NC(=O)[C@@H](CCCN=C(N)N)NC(=O)[C@@H](CCCN=C(N)N)NC(=O)[C@@H](CO)NC(=O)[C@@H](CC(=O)O)NC(=O)[C@@H](CC(C)C)NC(=O)[C@@H](Cc1ccc(O)cc1)NC(=O)[C@@H](CCCCN)NC(=O)[C@@H](CO)NC(=O)[C@@H](Cc1ccc(O)cc1)NC(=O)[C@@H](CCC(=O)O)NC(=O)[C@@H](CO)NC(=O)[C@H](NC(=O)[C@H](NC(=O)CNC(=O)[C@@H](CCC(N)=O)NC(=O)[C@H](N)CO)[C@H](C)O)[C@H](C)O)C(C)C)C(=O)N[C@H](CC(N)=O)C(=O)N[C@@H](C(=O)O)[C@H](C)O (stereo in doubt; 13) |  |  | 0% | < 0.1%
8 | CSCC[C@H](NC(=O)[C@H](CC(C)C)NC(=O)[C@H](Cc1c[nH]c2ccccc12)NC(=O)[C@H](CCC(N)=O)NC(=O)[C@@H](NC(=O)[C@H](Cc1ccccc1)NC(=O)[C@H](CC(=O)O)NC(=O)[C@H](CCC(N)=O)NC(=O)[C@H](C)NC(=O)[C@H](CCCNC(=N)N)NC(=O)[C@H](CCCNC(=N)N)NC(=O)[C@H](CO)NC(=O)[C@H](CC(=O)O)NC(=O)[C@H](CC(C)C)NC(=O)[C@H](Cc1ccc(O)cc1)NC(=O)[C@H](CCCCN)NC(=O)[C@H](CO)NC(=O)[C@H](Cc1ccc(O)cc1)NC(=O)[C@H](CCC(=O)O)NC(=O)[C@H](CO)NC(=O)[C@@H](NC(=O)[C@H](CC(=O)O)NC(=O)[C@@H](NC(=O)CNC(=O)[C@H](CCC(N)=O)NC(=O)[C@@H](N)CO)[C@@H](C)O)[C@@H](C)O)C(C)C)C(=O)N[C@@H](CC(N)=O)C(=O)N[C@H](C(N)=O)[C@@H](C)O | 501 nM | 2000 nM |  | 
9 | CSCC[C@@H](NC(=O)[C@@H](CC(C)C)NC(=O)[C@@H](Cc1c[nH]c2ccccc12)NC(=O)[C@@H](CCC(N)=O)NC(=O)[C@H](NC(=O)[C@@H](Cc1ccccc1)NC(=O)[C@@H](CC(=O)O)NC(=O)[C@@H](CCC(N)=O)NC(=O)[C@@H](C)NC(=O)[C@@H](CCCN=C(N)N)NC(=O)[C@@H](CCCN=C(N)N)NC(=O)[C@@H](CO)NC(=O)[C@@H](CC(=O)O)NC(=O)[C@@H](CC(C)C)NC(=O)[C@@H](Cc1ccc(O)cc1)NC(=O)[C@@H](CCCCN)NC(=O)[C@@H](CO)NC(=O)[C@@H](Cc1ccc(O)cc1)NC(=O)[C@@H](CCC(=O)O)NC(=O)[C@@H](CO)NC(=O)[C@H](NC(=O)[C@@H](Cc1ccc(O)cc1)NC(=O)[C@H](NC(=O)CNC(=O)[C@@H](CCC(N)=O)NC(=O)[C@H](N)CO)[C@H](C)O)[C@H](C)O)C(C)C)C(=O)N[C@H](CC(N)=O)C(=O)N[C@@H](C(N)=O)[C@H](C)O |  |  | 0% | 3.8%
10 | CSCC[C@H](NC(=O)[C@H](CC(C)C)NC(=O)[C@H](Cc1c[nH]c2ccccc12)NC(=O)[C@H](CCC(N)=O)NC(=O)[C@@H](NC(=O)[C@H](Cc1ccccc1)NC(=O)[C@H](CC(=O)O)NC(=O)[C@H](CCC(N)=O)NC(=O)[C@H](C)NC(=O)[C@H](CCCNC(=N)N)NC(=O)[C@H](CCCNC(=N)N)NC(=O)[C@H](CO)NC(=O)[C@H](CC(=O)O)NC(=O)[C@H](CC(C)C)NC(=O)[C@H](Cc1ccc(O)cc1)NC(=O)[C@H](CCCCN)NC(=O)[C@H](CO)NC(=O)[C@H](Cc1ccc(O)cc1)NC(=O)[C@H](CCC(=O)O)NC(=O)[C@H](CO)NC(=O)[C@@H](NC(=O)[C@@H](NC(=O)CNC(=O)[C@H](CCC(N)=O)NC(=O)[C@@H](N)CO)[C@@H](C)O)[C@@H](C)O)C(C)C)C(=O)N[C@@H](CC(N)=O)C(=O)N[C@H](C(=O)O)[C@@H](C)O (stereo in doubt; 13) | 631 nM | 2000 nM |  | 
11 | CSCC[C@@H](NC(=O)[C@@H](CC(C)C)NC(=O)[C@@H](Cc1c[nH]c2ccccc12)NC(=O)[C@@H](CCC(N)=O)NC(=O)[C@H](NC(=O)[C@@H](Cc1ccccc1)NC(=O)[C@@H](CC(=O)O)NC(=O)[C@@H](CCC(N)=O)NC(=O)[C@@H](C)NC(=O)[C@@H](CCCN=C(N)N)NC(=O)[C@@H](CCCN=C(N)N)NC(=O)[C@@H](CO)NC(=O)[C@@H](CC(=O)O)NC(=O)[C@@H](CC(C)C)NC(=O)[C@@H](Cc1ccc(O)cc1)NC(=O)[C@@H](CCCCN)NC(=O)[C@@H](CO)NC(=O)[C@@H](Cc1ccc(O)cc1)NC(=O)[C@@H](CCC(=O)O)NC(=O)[C@@H](CO)NC(=O)[C@H](NC(=O)[C@H](Cc1ccccc1)NC(=O)[C@H](NC(=O)CNC(=O)[C@@H](CCC(N)=O)NC(=O)[C@H](N)CO)[C@H](C)O)[C@H](C)O)C(C)C)C(=O)N[C@H](CC(N)=O)C(=O)N[C@@H](C(N)=O)[C@H](C)O |  |  | 0% | 1.5%
12 | H-HSQGTTSDYSKYLDSRRAQDFVQWLMNT-OH | 562 nM | 500 nM |  | 
